In patent US20240398828A1, “HETERO-ATOM CONTAINING COMPOUNDS AND USES THEREOF” (Kumquat Biosciences Inc., priority 2021, published 2024):

Experiments:
PTPN2 (i.e., TC-PTP) = biological target: T1, PTPN2 (i.e., TC-PTP) (Homo sapiens, UniProt P17706); assay: Phosphatase activity assay (DiFMUP substrate), PTPN2; assay type: biochemical; details: compounds binned ≤1 uM or >1 uM
T1 sequence (P17706 1-415): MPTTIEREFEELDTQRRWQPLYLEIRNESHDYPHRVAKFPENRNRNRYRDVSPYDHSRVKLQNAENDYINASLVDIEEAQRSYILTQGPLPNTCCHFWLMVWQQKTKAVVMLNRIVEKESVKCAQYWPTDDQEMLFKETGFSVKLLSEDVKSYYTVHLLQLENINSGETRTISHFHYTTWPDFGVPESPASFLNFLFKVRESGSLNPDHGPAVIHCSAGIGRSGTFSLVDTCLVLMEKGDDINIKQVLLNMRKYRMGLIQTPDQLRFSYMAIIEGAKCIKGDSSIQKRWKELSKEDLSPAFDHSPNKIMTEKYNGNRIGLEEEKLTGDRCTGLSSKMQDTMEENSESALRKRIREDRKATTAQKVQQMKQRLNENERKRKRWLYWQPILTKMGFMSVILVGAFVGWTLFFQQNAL
Summary of the method: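 RT, HEPES pH 7.5 buffer with DTT/Tween-20. 10-point inhibitor series premixed ~2 min with enzyme (PTPN2 0.025 ng/ul). Start with DiFMUP at enzyme Km (~45 μM for PTPN2). Read DiFMU ex360/em450 continuously 15–30 min; initial rate vs concentration, 4-parameter fit → IC50.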

PTPN1 (i.e., PTP1B) = biological target: T2, PTPN1 (i.e., PTP1B) (Homo sapiens, UniProt P18031); assay: Phosphatase activity assay (DiFMUP substrate), PTP1B; assay type: biochemical; details: compounds binned ≤1 uM or >1 uM
T2 sequence (P18031 1-435): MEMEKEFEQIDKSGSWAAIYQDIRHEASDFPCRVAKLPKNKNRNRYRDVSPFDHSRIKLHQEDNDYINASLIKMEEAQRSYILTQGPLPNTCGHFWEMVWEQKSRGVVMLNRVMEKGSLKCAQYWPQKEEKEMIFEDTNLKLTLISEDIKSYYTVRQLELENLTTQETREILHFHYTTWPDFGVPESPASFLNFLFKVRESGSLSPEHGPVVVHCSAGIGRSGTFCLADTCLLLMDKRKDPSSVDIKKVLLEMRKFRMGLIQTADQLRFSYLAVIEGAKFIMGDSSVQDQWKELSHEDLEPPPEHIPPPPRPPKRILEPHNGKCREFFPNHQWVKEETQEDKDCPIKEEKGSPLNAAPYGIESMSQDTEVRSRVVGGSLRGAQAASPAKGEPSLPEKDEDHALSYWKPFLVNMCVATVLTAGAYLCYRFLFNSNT
Summary of the method: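 Enzyme (e.g. PTPN2 0.025 ng/ul) mixed about 2 min with compound at 10 serial concentrations in 50 mM HEPES pH 7.5, 150 mM NaCl, 0.5 mM EDTA, 1 mM DTT, 0.001% Tween-20 at room temperature. DiFMUP added at each enzyme's Km (about 45 μM for PTPN2). DiFMU fluorescence (ex 360/em 450 nm) followed 15-30 min; IC50 from 4-parameter fit of rates.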

Structure (SMILES)	IC50 (PTPN2 (i.e., TC-PTP))	IC50 (PTPN1 (i.e., PTP1B))
O=C1CN(c2c(O)ccc(-c3cc(C(=O)NC4CC4)n[nH]3)c2F)S(=O)(=O)N1 [Compound 460, N-cyclopropyl-5-(3-(1,1-dioxido-4-oxo-1,2,5-thiadiazolidin-2-yl)-2-fluoro-4-hydroxyphenyl)-1H-pyrazole-3-carboxamide]	> 1 µM	≤ 1 µM
Cn1cc(-c2ccc(O)c(N3CC(=O)NS3(=O)=O)c2F)ccc1=O [Compound 106, 5-(2-fluoro-6-hydroxy-3-(1-methyl-6-oxo-1,6-dihydropyridin-3-yl)phenyl)-1,2,5-thiadiazolidin-3-one 1,1-dioxide]	≤ 1 µM	≤ 1 µM
CCC1C=C(c2ccc(O)c(N3CC(=O)NS3(=O)=O)c2F)CNC1 (centres unmarked) [Compound 497, 5-(3-(5-ethyl-1,2,5,6-tetrahydropyridin-3-yl)-2-fluoro-6-hydroxyphenyl)-1,2,5-thiadiazolidin-3-one 1,1-dioxide]	≤ 1 µM	≤ 1 µM
O=C1CN(c2c(O)ccc(-c3ccc(NS(=O)(=O)C4CC4)cc3)c2F)S(=O)(=O)N1 [Compound 292, N-(3′-(1,1-dioxido-4-oxo-1,2,5-thiadiazolidin-2-yl)-2′-fluoro-4′-hydroxy-[1,1′-biphenyl]-4-yl)cyclopropanesulfonamide]	≤ 1 µM	≤ 1 µM
O=C1CN(c2c(O)ccc(C3=CCCN(C4CC4)C3)c2F)S(=O)(=O)N1 [Compound 378, 5-(3-(1-cyclopropyl-1,2,5,6-tetrahydropyridin-3-yl)-2-fluoro-6-hydroxyphenyl)-1,2,5-thiadiazolidin-3-one 1,1-dioxide]	≤ 1 µM	≤ 1 µM
O=C1CN(c2c(O)ccc(-c3cn(-c4ccccc4F)cn3)c2F)S(=O)(=O)N1 [Compound 437, 5-(2-fluoro-3-(1-(2-fluorophenyl)-1H-imidazol-4-yl)-6-hydroxyphenyl)-1,2,5-thiadiazolidin-3-one 1,1-dioxide]	≤ 1 µM	≤ 1 µM

The next lines start with the values.

IC50 (PTPN2 (i.e., TC-PTP))	IC50 (PTPN1 (i.e., PTP1B))	Structure (SMILES)
≤ 1 µM	≤ 1 µM	COC1CCN(c2cc(-c3ccc(O)c(N4CC(=O)NS4(=O)=O)c3F)[nH]n2)C1 (centres unmarked) [Compound 388, 5-(2-fluoro-6-hydroxy-3-(3-(3-methoxypyrrolidin-1-yl)-1H-pyrazol-5-yl)phenyl)-1,2,5-thiadiazolidin-3-one 1,1-dioxide]
≤ 1 µM	≤ 1 µM	Cn1nc(-c2ccc(O)c(N3CC(=O)NS3(=O)=O)c2F)cc1C1CC1 [Compound 367, 5-(3-(5-cyclopropyl-1-methyl-1H-pyrazol-3-yl)-2-fluoro-6-hydroxyphenyl)-1,2,5-thiadiazolidin-3-one 1,1-dioxide]
≤ 1 µM	≤ 1 µM	CN(C)CCn1cc(-c2ccc(O)c(N3CC(=O)NS3(=O)=O)c2F)cn1 [Compound 148, 5-(3-(1-(2-(dimethylamino)ethyl)-1H-pyrazol-4-yl)-2-fluoro-6-hydroxyphenyl)-1,2,5-thiadiazolidin-3-one 1,1-dioxide]
≤ 1 µM	≤ 1 µM	Cn1ncc(-c2ccc(O)c(N3CC(=O)NS3(=O)=O)c2F)n1 [Compound 178, 5-(2-fluoro-6-hydroxy-3-(2-methyl-2H-1,2,3-triazol-4-yl)phenyl)-1,2,5-thiadiazolidin-3-one 1,1-dioxide]
≤ 1 µM	≤ 1 µM	N#CC1(c2cc(-c3ccc(O)c(N4CC(=O)NS4(=O)=O)c3F)[nH]n2)CC1 [Compound 441, 1-(5-(3-(1,1-dioxido-4-oxo-1,2,5-thiadiazolidin-2-yl)-2-fluoro-4-hydroxyphenyl)-1H-pyrazol-3-yl)cyclopropane-1-carbonitrile]
≤ 1 µM	≤ 1 µM	O=C1CN(c2c(O)ccc(-c3cc(C4CC4(F)F)n[nH]3)c2F)S(=O)(=O)N1 (centres unmarked) [Compound 364, 5-(3-(3-(2,2-difluorocyclopropyl)-1H-pyrazol-5-yl)-2-fluoro-6-hydroxyphenyl)-1,2,5-thiadiazolidin-3-one 1,1-dioxide]
≤ 1 µM	≤ 1 µM	Cc1cc(-c2ccc(O)c(N3CC(=O)NS3(=O)=O)c2F)on1 [Compound 182, 5-(2-fluoro-6-hydroxy-3-(3-methylisoxazol-5-yl)phenyl)-1,2,5-thiadiazolidin-3-one 1,1-dioxide]
